Experimental findings from publication PMC9126943, “ADAMTS4-specific MR probe to assess aortic aneurysms in vivo using synthetic peptide libraries” (Nature Communications, 2022) are described below.

This assay concerns the target T1, ADAMTS1 (Homo sapiens, UniProt Q9UHI8).
T1 construct: His; purchased BioTeZ Berlin-Buch GmbH 30 400 402
T1 sequence (Q9UHI8 253-967): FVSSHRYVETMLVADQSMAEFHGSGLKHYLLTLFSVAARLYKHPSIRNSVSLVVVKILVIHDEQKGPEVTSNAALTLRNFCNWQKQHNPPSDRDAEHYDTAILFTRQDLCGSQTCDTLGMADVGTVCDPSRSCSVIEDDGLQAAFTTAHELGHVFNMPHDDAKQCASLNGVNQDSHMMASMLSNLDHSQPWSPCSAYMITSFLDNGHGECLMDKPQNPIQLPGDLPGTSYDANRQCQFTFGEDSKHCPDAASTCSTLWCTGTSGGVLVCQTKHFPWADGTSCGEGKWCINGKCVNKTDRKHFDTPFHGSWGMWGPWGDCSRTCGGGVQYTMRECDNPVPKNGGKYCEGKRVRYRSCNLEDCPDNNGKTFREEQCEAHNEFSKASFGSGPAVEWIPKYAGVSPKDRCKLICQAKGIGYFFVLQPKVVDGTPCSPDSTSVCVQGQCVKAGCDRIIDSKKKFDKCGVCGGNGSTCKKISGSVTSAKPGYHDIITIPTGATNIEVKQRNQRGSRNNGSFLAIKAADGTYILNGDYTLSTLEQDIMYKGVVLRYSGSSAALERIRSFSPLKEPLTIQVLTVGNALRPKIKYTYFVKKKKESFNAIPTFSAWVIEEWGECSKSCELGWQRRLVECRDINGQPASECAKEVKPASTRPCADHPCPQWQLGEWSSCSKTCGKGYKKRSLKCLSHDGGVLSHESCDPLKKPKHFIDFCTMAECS
Nature of the assay: MST instrument, ligand-dependent fluorescence change, Cy5-labeled peptide vs ADAMTS1. To be noted: Cy5-labeled peptide 3 nM, ADAMTS1 starting concentration 4.88 µM, n = 3. It counts as binding. The protocol: Microscale thermophoresis (MST) was performed on a Monolith Pico (NanoTemper, Munich, Germany). The Cy5-labeled peptides were diluted into the MST buffer (150 mM NaCl, 50 mM TRIS-HCl, 5 mM CaCl2, and Tween-20) to reach a dilution of 6 nM. ADAMTS4, ADAMTS5, and ADAMTS1 were directly used with the supplied concentration. For ADAMTS4, the starting concentration was 4.96 µM, while for ADAMTS1 it was 4.88 µM and for ADAMTS5 it was 2.46 µM. Since we saw a loss of binding after centrifugation, the use of protein concentrators were inappropriate. 20 µl of the protein solutions were transferred into a PCR tube. 10 µl of this first vial was transferred into a second vial and mixed by pipetting with 10 µl of the MST buffer. […] The capillaries were transferred into the Monolith tray and measured with 10% excitation power on the pico-red excitation on high MST power at 25 °C. […] We detected a ligand-dependent fluorescence change for some of the systems. We checked for ADAMTS4 and the ADAMTS4-specific-Cy5-labeled probe via a saturation test for specifying the ligand-dependent fluorescence change. […] The samples were heated at 95 °C for 5 min and measured in the MST. The fluorescence difference between the concentrations was afterward at the same level. Each measurement was repeated three times independently and the binding constant was calculated by merging all three measurements. […]

Structures are written as SMILES. “Also recorded” adds a separate entry of the source. Where a SMILES comes first, the peptide text is derived from it. Bridges are numbered along the chain shown (N, C = ends). The star is where a group is joined. Cy5(nonsulfonated) = CN1C(=CC=CC=CC2=[N+](CCCCCC(=O)*)c3ccccc3C2(C)C)C(C)(C)c2ccccc21

As for `C[N+]1=C(C=CC=CC=C2N(CCCCCC(=O)NCCCC[C@H](NC(=O)CNC(=O)CNC(=O)[C@H](CO)NC(=O)CNC(=O)CNC(=O)[C@H](CO)NC(=O)[C@@H]3CSSC[C@H](N)C(=O)N[C@@H](CO)C(=O)N[C@@H](CCCNC(=N)N)C(=O)N[C@@H](CCCNC(=N)N)C(=O)NCC(=O)N3)C(=O)NCC(N)=O)c3ccccc3C2(C)C)C(C)(C)c2ccccc21` [Cy5-labeled probe] (H-CSRRGCSGGSGGK(Cy5(nonsulfonated))G-NH2; disulfide 1-6; N-terminus and C-terminus assumed), the “binding to ADAMTS1, in words” value was “determination of the binding constant is not possible; also recorded: plateau was not reached; also recorded: a ligand dependent fluorescence change occurs”.
